Measured values published in patent US7820659B2, “Cyclohexylimidiazole lactam derivatives as inhibitors of 11-β-hydroxysteroid dehydrogenase 1” (Eli Lilly and Company, priority 2006, dated 2010).

Columns and labels:
[1] = biological target: recombinant human 11β-HSD type 1 enzyme (Homo sapiens, UniProt P28845); experiment: 11β-HSD Type 1 Enzyme Assay (NADPH fluorescence); format: biochemical; settings: three hour incubation at room temperature, read-out: Human 11-βHSD1 IC50
Protocol: 11β-HSD Type 1 Enzyme Assay
Human 11β-HSD type 1 activity is measured by assaying NADPH production by fluorescence assay. Solid compounds are dissolved in DMSO to a concentration of 10 mM. Twenty microliters of each are then transferred to a column of a 96-well polypropylene Nunc plate where they are further diluted 50-fold followed by subsequent two-fold titration, ten times across the plate with additional DMSO using a Tecan Genesis 200 automated system. Plates are then transferred to a Tecan Freedom 200 system with an attached Tecan Temo 96-well head and an Ultra 384 plate reader. Reagents are supplied in 96-well polypropylene Nunc plates and are dispensed individually into black 96-well Molecular Devices High Efficiency assay plates (40 μL/well capacity) in the following fashion: 9 μL/well of substrate (2.22 mM NADP, 55.5 μM Cortisol, 10 mM Tris, 0.25% Prionex, 0.1% Triton X100), 3 μL/well of water to compound wells or 3 μL to control and standard wells, 6 μL/well recombinant human 11β-HSD type 1 enzyme, 2 μL/well of compound dilutions. […] Final DMSO concentration is 0.5% for all compounds, controls and standards. Plates are then placed on a shaker by the robotic arm of the Tecan for 15 seconds before being covered and stacked for a three hour incubation period at room temperature. Upon completion of this incubation, the Tecan robotic arm removes each plate individually from the stacker and places them in position for addition of 5 μL/well of a 250 μM carbenoxolone solution to stop the enzymatic reaction. Plates are then shaken once more for 15 seconds then placed into an Ultra 384 microplate reader (355EX/460EM) for detection of NADPH fluorescence.

[2] = biological target: T1, 11β-HSD1 in primary human aortic smooth muscle cells (AoSMC) (Homo sapiens, UniProt P28845); experiment: Human Aortic Smooth Muscle Cell Assay (cortisone to cortisol conversion); format: cell-based; settings: hTNFα-induced 11β-HSD1, cortisol by time resolved immunoassay
T1 construct: containing 12 ng/mL hTNFα to induce expression of 11β-HSD1; endogenous in cells; host or cells: primary human aortic smooth muscle cells (AoSMC), induced with hTNFα
T1 sequence (P28845 whole entry): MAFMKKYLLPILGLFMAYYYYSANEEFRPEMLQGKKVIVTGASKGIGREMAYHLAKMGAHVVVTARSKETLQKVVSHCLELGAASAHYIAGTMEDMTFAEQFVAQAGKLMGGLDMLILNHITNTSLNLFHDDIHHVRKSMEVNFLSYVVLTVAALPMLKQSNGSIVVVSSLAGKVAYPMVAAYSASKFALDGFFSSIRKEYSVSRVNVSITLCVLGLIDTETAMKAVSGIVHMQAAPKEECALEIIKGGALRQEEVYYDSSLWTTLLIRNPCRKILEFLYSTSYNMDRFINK
Protocol: Human Aortic Smooth Muscle Cell Assay
Primary human aortic smooth muscle cells (AoSMC) are cultured in 5% FBS growth medium to a passage number of 6, then pelleted by centrifugation and resuspended at a density of 9×10^4 cells/mL in 0.5% FBS assay medium containing 12 ng/mL hTNFα to induce expression of 11β-HSD1. Cells are seeded into 96-well tissue culture assay plates at 100 μL/well (9×10^3 cells/well) and incubated for 48 hours at 37° C., 5% CO2. Following induction, cells are incubated for 4 hours at 37° C., 5% CO2 in assay medium containing test compounds then treated with 10 μL/well of 10 μM cortisone solubilized in assay medium, and incubated for 16 hours at 37° C., 5% CO2. Medium from each well is transferred to a plate for subsequent analysis of cortisol using a competitive fluorescence resonance time resolved immunoassay. In solution, an allophycocyanin (APC)-cortisol conjugate and free cortisol analyte compete for binding to a mouse anti-cortisol antibody/Europium (Eu)-anti mouse IgG complex. Higher levels of free cortisol result in diminishing energy transfer from the Europium-IgG to the APC-cortisol complex resulting in less APC fluorescence. Fluorescent intensities for Europium and APC are measured using a LJL Analyst AD. Europium and APC excitation is measured using 360 nm excitation and 615 nm and 650 nm emission filters respectively. Time resolved parameters for Europuium were 1000 μs integration time with a 200 μs delay. APC parameters are set at 150 μs integration time with a 50 μs delay. Fluorescent intensities measured for APC are modified by dividing by the Eu fluorescence (APC/Eu). This ratio is then used to determine the unknown cortisol concentration by interpolation using a cortisol standard curve fitted with a 4-parameter logistic equation. These concentrations are then used to determine compound activity by plotting concentration versus % inhibition, fitting with a 4-parameter curve and reporting the IC50.

cortisone conversion = experiment: Acute In Vivo Cortisone Conversion Assay; parameters: species or system male C57BL/6 mice; settings: mice, oral dose of 10 mg/kg, cortisone challenge 30 mg/kg s.c. after 16 hours, serum cortisol by LC-MS/MS
Protocol: Acute In Vivo Cortisone Conversion Assay
In general, compounds are dosed orally into mice, the mice are challenged with a subcutaneous injection of cortisone at a set timepoint after compound injection, and the blood of each animal is collected some time later. Separated serum is then isolated and analyzed for levels of cortisone and cortisol by LC-MS/MS, followed by calculation of mean cortisol and percent inhibition of each dosing group. Specifically, male C57BL/6 mice are obtained from Harlan Sprague Dawley at average weight of 25 grams. Exact weights are taken upon arrival and the mice randomized into groups of similar weights. Compounds are prepared in 1% w-w HEC, 0.25% w-w polysorbate 80, 0.05% w-w Dow Corning antifoam #1510-US at various doses based on assumed average weight of 25 grams. Compounds are dosed orally, 200 μl per animal, followed by a subcutaneous dose, 200 μl per animal, of 30 mg/kg cortisone at 1 to 24 hours post compound dose. At 10 minutes post cortisone challenge, each animal is euthanized for 1 minute in a CO2 chamber, followed by blood collection via cardiac puncture into serum separator tubes. Once fully clotted, tubes are spun at 2500×g, 4° C. for 15 minutes, the serum transferred to wells of 96-well plates (Corning Inc, Costar #4410, cluster tubes, 1.2 ml, polypropylene), and the plates are frozen at −20° C. until analysis by LC-MS/MS. For analysis, serum samples are thawed and the proteins are precipitated by the addition of acetonitrile containing d-4-cortisol internal standard. Samples are vortex mixed and centrifuged. The supernatant is removed and dried under a stream of warm nitrogen. Extracts are reconstituted in methanol/water (1:1) and injected onto the LC-MS/MS system. The levels of cortisone and cortisol are assayed by selective reaction monitoring mode following positive ACPI ionization on a triple quadrupole mass spectrophotometer.

Sequence of recombinant human 11β-HSD type 1 enzyme (P28845 whole entry): as above

Molecule O=C1C(Cc2c(Cl)cc(-c3ccc(F)cc3)cc2Cl)CCN1C1CCc2[nH]cnc2C1 (stereo not shown) [Example 15, 3-(3,5-Dichloro-4′-fluoro-biphenyl-4-ylmethyl)-1-(4,5,6,7-tetrahydro-1H-benzoimidazol-5-yl)-pyrrolidin-2-one] has an IC50 [1] of 214 nM and an IC50 [2] of 3.2 nM.
O=C1C(Cc2c(Cl)cc(-c3ccc(Cl)cc3)cc2Cl)CCN1C1CCc2nc[nH]c2C1 (stereo not shown) [Example 1, 1-(4,5,6,7-Tetrahydro-3H-benzoimidazol-5-yl)-3-(3,5,4′-trichloro-biphenyl-4-ylmethyl)-pyrrolidin-2-one] gave an IC50 [1] of 325 nM and an IC50 [2] of 6.8 nM.
O=C1[C@H](Cc2c(Cl)cc(-c3ccc(N4CCOCC4)nc3F)cc2Cl)CCN1C1CCc2[nH]cnc2C1 (stereo partly drawn) [Example 32, (R)-3-[2,6-Dichloro-4-(2-fluoro-6-morpholin-4-yl-pyridin-3-yl)-benzyl]-1-(4,5,6,7-tetrahydro-1H-benzoimidazol-5-yl)-pyrrolidin-2-one] was tested, and the IC50 [1] was 175 nM, the IC50 [2] was 3 nM and the “% Inhibition after 16 hours (dose of 10 (mg/kg))” value (“% Inhibition after 16 hours” for short) (cortisone conversion) was 59.2%.
O=C1[C@H](Cc2c(Cl)cc(-c3ccc(N4CCOCC4)cc3)cc2Cl)CCN1C1CCc2[nH]cnc2C1 (stereo partly drawn) [Example 29, (R)-3-(3,5-Dichloro-4′-morpholin-4-yl-biphenyl-4-ylmethyl)-1-(4,5,6,7-tetrahydro-1H-benzoimidazol-5-yl)-pyrrolidin-2-one] was tested, and the IC50 [1] was 75.4 nM, the IC50 [2] was 0.6 nM and the “% Inhibition after 16 hours” value (cortisone conversion) was 52%.
O=C(c1ccc(-c2cc(Cl)c(C[C@@H]3CCN(C4CCc5nc[nH]c5C4)C3=O)c(Cl)c2)cc1)N1CCC(C(F)(F)F)CC1 (stereo partly shown) [Example 42, 3-[R]-[3,5-Dichloro-4′-(4-trifluoromethyl-piperidine-1-carbonyl)-biphenyl-4-ylmethyl]-1-(4,5,6,7-tetrahydro-3H-benzoimidazol-5-yl)-pyrrolidin-2-one] was tested, and the IC50 [1] was 143 nM, the IC50 [2] was 4.5 nM and the “% Inhibition after 16 hours” value (cortisone conversion) was 98.4%.
